One experiment concerns Nucleic Acid. The experiment in a line: Binding affinity to supercoiled pRYG plasmid DNA assessed as DNA intercalation at 50 uM after 21 hrs by electrophoresis. In kind it is nucleic-acid assay.
The nature of experiment [1]: Selectivity ratio for IC50 of BRCA2-deficient Chinese hamster V-C8 mutant cells to IC50 of BRCA2-proficient Chinese hamster BAC29 mutant cells. In kind it is functional, Cricetulus griseus.
Experiment [2] is described as follows: Cytotoxicity against BRCA2-proficient Chinese hamster BAC29 mutant cells after 3 days by WST1 cell viability assay. In kind it is functional, cell-based. The note with it: Cricetulus griseus, WST1, 72 h. In general terms: Tetrazolium assays rely on reduction of a dye to a coloured formazan, in cell work by metabolically active cells.
A short description of experiment [3]: Cytotoxicity against BRCA2-deficient Chinese hamster V-C8 mutant cells after 3 days by WST1 cell viability assay. Format: functional, cell-based. The note with it: Cricetulus griseus, WST1, 72 h.

Activity calls are given as the source filed them. No cut-off for these calls is given here.

Turning to `COc1cccc2c1C(=O)c1c(O)c3c(c(O)c1C2=O)C[C@@](O)(C(=O)CO)C[C@@H]3O[C@H]1C[C@H](N)[C@H](O)[C@H](C)O1`, the outcome in the experiment on Nucleic Acid was Active.

As for `CO[C@@]12[C@H](COC(N)=O)C3=C(C(=O)C(C)=C(N)C3=O)N1C[C@@H]1N[C@@H]12` [MITOMYCIN], the “Ratio IC50” value in experiment [1] was 292. Also, the results for the IC50 in experiment [2] and in experiment [3] were 400 nM and 5 nM, respectively.

In general, IC50 refers to the point on the concentration scale where inhibition reaches its midpoint. A low value points to greater potency.

(Values after ChEMBL document CHEMBL1157411, “Marine natural product libraries for high-throughput screening and rapid drug discovery” (J Nat Prod, 2008).)
